Data on five compounds can be found in patent US20060127505A1, “Anti-inflammatory formulations” (priority 2002, published 2006).

For assay [1], the system named is ovalbumin(OA)-induced asthma in guinea pigs. As to the kind of experiment: Ovalbumin-induced asthma in guinea pigs: inflammatory cells in BAL fluid. Format: in vivo, guinea pig. As to conditions: components used separately: 10 mg/kg AX, 200 mg/kg vit C, 10 mg/kg GB. On the procedure:
The effect combinations of vitamin C, astaxanthin, and ginkolide on asthma-associated disease parameters ovalbumin(OA)-induced asthma in guinea pigs was evaluated. Twenty-four hours following OA challenge, animals are sacrificed and numbers of inflammatory cells (eosinophils, neutrophils, macrophages) are measured in bronchoalveolar lavage (BAL) fluid; and cAMP and cGMP concentrations in the lung tissue. The experiments were carried out as follows. Male Hartley guinea pigs (250-350 g) were sensitized by intramuscular injections of 0.35 ml of a 5% (W/V) ovalbumin (OA)/saline solution into each thigh on days 1 and 4. Guinea pigs were ready for asthmatic challenge after 25 days of ovalbumin injection. Asthmatic challenge was carried out with ovalbumin aerosol, and bronchoalveolar lavage (BAL) was done 24 hours later. The numbers of eosinophils, neutrophils, and macrophages in the BAL fluid were counted. Twenty-four hours after the aerosol OA challenge, guinea pigs were killed by cervical dislocation and exsanguinated by severing the axillary arteries. Lungs were lavaged with 50 ml of DulBecco's phosphate-buffered saline (aliquots of 10 ml), which were aspirated after gentle chest massage. BAL fluid was centrifuged at 2200 rpm (1100×g) for 10 min, supernatant was aspirated, and pellets were resuspended in 5 ml 0.25% NaCl to lyse residual erythrocytes. This dispersion was centrifuged at 2200 rpm (1100×g) for 10 min, supernatant was aspirated, and pellets were resuspended 5 ml 0.9% NaCl. Total cell counts were done by hemocytometry using trypan blue stain. Slides were prepared on a Shandon Cytospin 2 (Pittsburgh, Pa.) at 300 rpm for 5 min, fixed and stained. Differential cell counts were done using standard morphologic criteria to classify cells as eosinophils, neutrophils, or macrophages, and the results were expressed in cell numbers. The dose-responsive effect of AX, EGb761, and vitamin C administered independently for suppression of asthma-associated parameters in allergen-induced, asthmatic guinea pigs was determined. Ibuprophen (IB) was used as the positive control. Concentration of inflammatory cells in bronchoalveolar lavage (BAL) fluid and levels of cAMP and cGMP in lung tissue were measured in guinea pigs 24 hours following challenge with OV. Data is reported as mean±SD of measurements taken in 6 animals per dosage cohort. *p<0.05 compared to corresponding values of OV antigen-challenged, drug-free control group. The dose-responsive effect of AX, EGb761, and vitamin C administered in combination for suppression of asthma-associated parameters in allergen-induced, asthmatic guinea pigs was determined. The combination of these three components was given each day for each guinea pig as a “cocktail”. Concentration of inflammatory cells in bronchoalveolar lavage (BAL) fluid and levels of cAMP and cGMP in lung tissue were measured in guinea pigs 24 hours following challenge with OV. Data is reported as mean±SD of measurements taken in 6 animals per dosage cohort. *p<0.05 compared to corresponding values of OV antigen-challenged, drug-free control group.

For assay [2], the system named is CD3+HLA-DR+ T lymphocytes in human PBMC. As to the kind of experiment: PHA induction of HLA-DR+ on CD3+ T cells, PBMC from asthma patients (Example 5). Format: cell-based. The settings on record: for SI HLA-DR: PHA 50 μg/ml, 24 hours. The procedure: (§1) Experiments were carried out to determine whether the immunoregulatory capacity of two commonly-used H1-inhibitory antihistamines: cetirizine dihydrochloride (CTZ/Zyrtec) and azelastine ([…]) is potentiated by the platelet activating factor receptor (PAFR) antagonist and free radical scavenger Ginkgolide B (GB). […] Each drug was first evaluated independently over a 3-log dose range from 10^-8-10^-6 M.

In the next assay the test system is TNF-α. Put plainly: TNF-α expression by PHA-stimulated human PBMC, ELISA of supernatant. The assay is classed as cell-based. As to conditions: PHA 50 μg/ml, 24 hours; 10^−4 M. On the procedure:
PBMC (2×10^6/ml) from 2 donors were stimulated with 50 μg/ml, PHA; or with astaxanthin (10^−6 M); or with the ginkgolide BN52021 (GB) (10^−4 M); or with a combination of astaxanthin (10^−6 M) plus GB (10^−4 M); or with media. Cells were cultured 24 hours at 37° C., 5% CO2 and analyzed by ELISA for supernatant concentration of TNF-α. Each data point is the mean of triplicate samples.
(An ELISA detects its analyte on a solid surface through an enzyme-linked reagent.)

For assay [3], the system named is CD3+HLA-DR+ lymphocytes in human PBMC. Put plainly: PHA-mediated induction of CD3+HLA-DR+ lymphocytes in human PBMC (Example 8). The assay is classed as cell-based. As to conditions: PHA 50 μg/ml, 24 hours. The procedure:
(§2) Cells from 3-12 asthma patients were cultured 24 hours with 50 μg/ml PHA. PBMC evaluated by 2-color flow cytometry were gated for CD3+ and analyzed for CD3+CD25+ or CD3+HLA-DR+ as a percentage of the CD3+ population. Results are reported as stimulation indices (SI) calculated as the ratio of % CD3+CD25+ cells or % CD3+HLA-DR+ cells in fully-stimulated cultures to % CD3+CD25+ or % CD3+HLA-DR+ respectively in cells treated with PHA plus ASX, GB, or combinations thereof.

The subject of assay [4] is CD3+CD25+ cells in human PBMC. Put plainly: T lymphocyte activation (CD3+CD25+) in PHA-stimulated PBMC of asthma patients (Example 6). As to conditions: PHA 50 μg/ml, 24 hours. Format: cell-based. The procedure: Experiments were carried out to determine whether formulations based on the platelet activating factor receptor (PAFR) antagonist and free radical scavenger Ginkgolide B (GB) in combination with the antioxidant carotenoid astaxanthin (ASX) suppress T cell activation in the same dose range as two commonly-used antihistamines: cetirizine dihydrochloride (CTZ/Zyrtec) and azelastine ([…]). […] Results are reported as stimulation indices (SI) of % CD3+CD25+ cells in cultures treated with PHA alone to % CD3+CD25+ cells in each drug-supplemented culture. […] Subjects for this study included 12 patients diagnosed with atopic asthma, 7 male and 5 female, ranging in age from 21 to 40 years (mean 28±1.8 years). Disease duration ranged from 2 to 12 years. Atopy was defined on the basis of one or more positive skin prick tests to a range of 20 allergens. None of the patients had received systemic therapy for at least 6 weeks prior to blood collection. The mean serum IgE was 335 (170-480) IU/ml. Venous blood for each subject was collected in polyethylene tubes containing EDTA during a one hour morning time interval. PBMC were separated by Ficoll-paque (Pharmacia, Uppsala, Sweden) density gradient centrifugation. Cells were washed and suspended in RPMI 1640 medium (Gibco BRL, Gaithersburg, Md.) at density of 1×10^6 cells/ml. PBMC were stimulated with 50 μg/ml Phytohemaglutinin (PHA) (Sigma Immunopharmaceuticals, St. Lous Mo.), or PHA plus 10^-8-10^-5 M astaxanthin (Natural Alternatives International (NAI) Inc., San Marcos Calif.); or ginkgolide B 10^-8-10^-6 M (NAI San Marcos Calif.); or selected combinations of ASX plus GB. Comparison of ASX and GB effects on T cell activation were made with two other pharmacological agents with anti-asthmatic properties by treating cells with 10^-7-10^-4 M cetirizine dihydrochloride (Pfizer Pharmaceuticals, Norwich Conn.); or 10^-7-10^-4 M azalestine hydrochloride (Wallace Pharmaceuticals, Somerset N.J.), followed by evaluation of cultures for the same biological endpoints as ASX/GB-treated cells. Each reagent was added at the outset of a 24 hours culture period, followed by harvest of cellular fraction for immunophenotyping studies. […] Two-color Flow cytometry was conducted using a Coulter Epics XL automated flow cytometer (Coulter Scientific, Hialeah, Fla., USA). Isotypic controls for the monoclonal antibodies (mAb) used to detect antigens of interest were established for each cell preparation. Positive analysis regions for cells expressing specific surface markers were set against controls and specific binding of fluorophore-conjugated mAb was analyzed by cytofluorography according to standard methods recommended by the manufacturer. Lymphocyte subpopulations were identified by position on forward and side scatter plots and live-gated. Expression of each antigen was reported as percentage cells positive for a particular T cell subpopulation defined by expression of CD3 (T lymphocyte marker) plus CD25, plus or minus standard error. Statistical analysis was performed using an independent t-test. All statistical analyses were performed using the SPSS for Windows statistical package (Norusis/SPSS, Inc.). […] The capacity of formulations evaluated in this study to suppress immune activation was measured as a stimulation index (SI), defined as the ratio of […].

The test system of assay [5] is CD3+CD25+ T lymphocytes in human PBMC. Put plainly: PHA induction of CD25+ on CD3+ T cells, PBMC from asthma patients (Example 5). The assay is classed as cell-based. The settings on record: for SI CD25: PHA 50 μg/ml, 24 hours. On the procedure: as §1
Assay [6] deals with CD3+CD25+ lymphocytes in human PBMC. As to the kind of experiment: PHA-mediated induction of CD3+CD25+ lymphocytes in human PBMC (Example 8). The assay is classed as cell-based. The settings on record: PHA 50 μg/ml, 24 hours. The procedure: as §2
For a further assay, the system named is cAMP-phosphodiesterase. As to conditions: cited from earlier work.
The test system of a further assay is eosinophils. The settings on record: oral treatment; histamine-induced guinea pig eye model; cited from earlier work.
The target in the next assay is PAF (Homo sapiens, UniProt P25105). As to conditions: cited from earlier work.

Entries after “also recorded” stand apart in the source; their conditions may differ.

Sequence of PAF (P25105 whole entry): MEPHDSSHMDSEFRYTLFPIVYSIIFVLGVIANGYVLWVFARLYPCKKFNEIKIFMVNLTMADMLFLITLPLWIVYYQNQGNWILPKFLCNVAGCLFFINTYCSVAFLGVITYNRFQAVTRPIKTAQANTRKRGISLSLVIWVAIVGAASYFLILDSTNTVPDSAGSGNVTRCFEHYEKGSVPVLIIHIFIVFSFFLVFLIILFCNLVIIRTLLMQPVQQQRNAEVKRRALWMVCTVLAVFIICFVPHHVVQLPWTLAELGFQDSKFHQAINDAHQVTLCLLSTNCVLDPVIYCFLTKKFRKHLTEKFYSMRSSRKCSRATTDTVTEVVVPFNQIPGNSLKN

In the case of `CC1C(=O)OC2C(O)C34C5CC(C(C)(C)C)C36C(OC(=O)C6O)OC4(C(=O)O5)C12O` (centres unmarked) [GB, Ginkgolide B], the “protection against OV-induced asthma” value in assay [1] is reported as “failed to protect; also recorded: failed to reduce the severity of asthma”. In addition, the “decrease in SI for HLA-DR” value in [2] (10^−8 M) is given as 39%. In addition, the “SI HLA-DR” value in assay [2] (10^−6 M) stood at 0.72 ± 0.18; in assay [2] (10^−7 M), 0.62 ± 0.18; in [2] (10^−8 M) it was 0.61 ± 0.10. The TNF-alpha in the assay with TNF-α turned out to be 1689.21 pg/mL. The “CD3+HLA-DR+ Stimulation Index” value in assay [3] (10^−6 M) was 0.66 ± 0.06; in assay [3] (10^−7 M), 0.78 ± 0.20; in [3] (10^−8 M), 0.73 ± 0.12. For the same compound, the “SI (CD3+CD25+)” value in [4] (10^−6 M) worked out at 0.77±0.12; in assay [4] (10^−8 M) it was 0.86±0.07. Besides, the entries for the “SI CD25” value in [5] (10^−6 M), in assay [5] (10^−7 M) and in [5] (10^−8 M) were 0.94 ± 0.12, 1.18 ± 0.21 and 0.81 ± 0.14, respectively. Moreover, the “CD3+CD25+ Stimulation Index” value was 0.83 ± 1.0 in assay [6] (10^−6 M), 0.92 ± 0.08 in assay [6] (10^−7 M) and 0.90 ± 0.07 in assay [6] (10^−8 M).

With `CN1CCCC(n2nc(Cc3ccc(Cl)cc3)c3ccccc3c2=O)CC1` (centres unmarked) [AZE, azelastine], the “decrease in SI for HLA-DR” value in assay [2] (10^−8 M) is 45%. The “SI HLA-DR” value is reported as 0.61 ± 0.13 in [2] (10^−6 M), 0.56 ± 0.10 in [2] (10^−7 M) and 0.55 ± 0.09 in [2] (10^−8 M). The “SI (CD3+CD25+)” value in [4] (10^−5 M) is listed as 0.76±0.12. Also, the “decrease in SI for CD25+” value in assay [5] (10^−8 M) is listed as 19%. In addition, the “SI CD25” value in assay [5] (10^−6 M) is listed as 1.13 ± 0.15; in assay [5] (10^−7 M) it was 0.88 ± 0.08; in assay [5] (10^−8 M) it was 0.81 ± 0.08.

As for `COc1ccc(-c2cc(=O)c3c(O)cc(O)c(-c4cc(-c5cc(=O)c6c(O)cc(OC)cc6o5)ccc4OC)c3o2)cc1` [sciadopitysin], the “degree of enzyme inhibition (cAMP-phosphodiesterase), order” value with cAMP-phosphodiesterase is “almost no capacity for inhibition”.

With `COc1ccc(C2CNC(=O)C2)cc1OC1CCCC1` (centres unmarked) [rolipram], the infiltrate of eosinophils entry in the assay on eosinophils was “significantly suppressed infiltrate”.

Regarding `COc1ccc(NC(=S)N2CCc3c(sc4c3C(c3ccccc3Cl)=NCc3nnc(C)n3-4)C2)cc1` [BN 50730], the “PAF antagonistic activity in vitro compared with BN52021” value on PAF is “several ten-folds more potent”.
